What was measured:
pre-oligodendrocytes = assay: Pre-oligodendrocyte proliferation, CyQUANT NF Cell Proliferation assay; assay type: cell-based, rat; conditions: for IC50: exposure 72-96 h, 1 nM to 100 μM, cellular DNA content fluorescence
Protocol: Purified oligodendrocyte progenitor cell cultures were prepared as described (Othman et al., 2003, Glia 44:166-172). In brief, primary rat mixed glial cell cultures were isolated from whole brains of postnatal day (P) 1 rats, dissociated into single cells, and cultured into poly-D-lysine (PDL, Sigma-Aldrich, St. Louis, Mo.) coated T75 tissue culture flasks. Plating medium consisted of Dulbecco's modified Eagle's medium (DMEM, Invitrogen, Carlsbad, Calif.) supplemented with 10% fetal bovine serum (FBS; InVitrogen, Carlsbad, Calif.), 2 mM L-glutamine, […]. Tissue cultures were maintained at 37° C. in a humidified 5% CO2 incubator, and medium was exchanged every 3 days. Once confluent (after 7-9 days), microglia were separated by mechanical shaking of flasks on a rotary shaker for 60 min at 200 rpm and removed. After addition of fresh medium, the remaining cells were allowed to recover overnight before repeating the mechanical shaking for an additional 16 h at 200 rpm to isolate oligodendrocyte progenitor cells. To ensure purity of oligodendrocyte progenitor cell cultures, the isolated cells were transferred to a tissue culture dish, from which the loosely attached oligodendrocyte progenitor cells were detached by gentle shaking after 60 min, leaving behind attached microglia and astrocytes. Oligodendrocyte progenitor cells were plated onto PDL coated 96 well plates using an automated dispenser and allowed to adhere to the plates over the next 1-2 days. This procedure yielded 98% A2B5-positive (OPC marker), and 2% MBP-positive (mature OL marker) cells. GFAP-positive (astrocyte marker) or O22A-positive (microglia marker) cells could not be detected in cultures prepared in this manner.
Cells were exposed to various KATP channel stimulators, with concentrations of compounds ranging from 1 nM to 100 μM, for 72-96 h. Pre-oligodendrocytes were cultured in 384-well plates, at a concentration of 10,000 cells per well. Cultures were washed two times with DMEM to remove any residual serum and then the respective solutions of KATP channel activators were added daily in an incubation buffer of DMEM with 0.5% FBS+10 μg/ml biotin and N2 supplement. Cells were then placed at 37° C. in a humidified atmosphere containing 5% CO2. All concentrations were tested in triplicate and each study was repeated twice.
To evaluate cell proliferation in response to KATP channel stimulators, the CyQUANT® NF Cell Proliferation assay (Invitrogen, Carlsbad, Calif.) was used according to the manufacturer's instructions. This assay measured cellular DNA content as a direct index of cell proliferation. Since cellular DNA content is highly proportional to cell number, this is a very accurate way to assess cell proliferation specifically. At the end of drug exposure, medium was removed and a stock solution of the green-fluorescent CyQUANT GR dye (prepared according to manufacturer's instructions) was added. […] Fluorescence was measured using an Envision Multilabel reader (Perkin-Elmer; Excitation: 480 nm, Emission: 530 nm).

C57BL/6 mice = assay: Hypoxia-induced periventricular white matter injury in neonatal mice; assay type: in vivo, mouse; conditions: for myelin basic protein-labeling (myelination): vs vehicle
Protocol: The effect of diazoxide in hypoxia-induced periventricular white matter injury was assessed. C57BL/6 mice were reared in […] 10% O2 from P3 to P12. Pups were treated with daily injection of either diazoxide or vehicle, with at least eight animals in each treatment group. Mice were weighed every two days. At P12, brains were removed. Ventricle size and myelin basic protein (MBP) labeling were assessed. C57BL/6 mice were exposed to low or normal oxygen conditions from P3-P12 (Turner et al., 2003, Proc. Natl. Acad. Sci. USA 100:11718-11722). In brief, litters of pups (P3) were placed with the dam in a Plexiglas chamber, in which oxygen levels were maintained at 9.5±1.0%, O2 levels were continuously monitored using a Cameron Instrument (Ontario, Canada) dual channel oxygen monitor attached to O2 electrodes placed at each end of the chamber. Control animals were kept in room air (˜22%) outside the Plexiglas chamber. Animals were removed from the chamber daily for less than 15 min to allow for diazoxide (10 mg/kg i.p.) or vehicle administration, as well as observation of weight gain. Mice were euthanized at P12, brains were harvested and shock frozen in ice cold (−20° C.) 2-methylbutane and stored at −80° C. until assessment of ventricular size or MBP immunocytochemistry (see below). At least eight animals were studied in each treatment group. Ventricle size was determined as reported (Turner et al., 2003, Proc. Natl. Acad. Sci. USA 100:11718-11722). Animals were weighed, anesthetized, and decapitated. Brains were shock frozen in ice cold (−20° C.) 2-methylbutane and stored at −80° C. Coronal sections spanning the brain were cut in a cryostat at a thickness of 16 μm in a Zeiss cryostat. Sections were mounted onto glass slides and stained with Phoenix Blue (Thermo Scientific, Waltham, Mass.). […] Ventricular sizes were quantified using Sigma Scan Pro Image Analysis Version 5.0.0 (SPSS Inc., Chicago, Ill.). The ventricular area, outlined by the Phoenix Blue staining, was measured and numerically integrated across the thickness of the slice. […]

Question: `CC(N/C(=N\C#N)Nc1ccncc1)C(C)(C)C` (stereo not drawn) [pinacidil, (E)-1-(3,3-dimethylbutan-2-yl)-2-cyano-3-(pyridin-4-yl)guanidine] was tested. Which IC50 (pre-oligodendrocytes; Rattus norvegicus) did it give?
Answer: 10 µM

Question: With `CC1=NS(=O)(=O)c2cc(Cl)ccc2N1` [diazoxide, 7-chloro-3-methyl-4H-1,2,4-benzothiadiazine 1,1-dioxide] as the compound, how does the EC50 (pre-oligodendrocytes; Rattus norvegicus, quoted in the cell toxicity study, read-out: observed EC50 value (pre-oligodendrocyte proliferation)) read?
Answer: 0.01 µM

Question: What about the “myelin basic protein-labeling (myelination)” value (C57BL/6 mice; chronic hypoxia P3-P12, 10 mg/kg i.p. daily) of the same compound?
Answer: markedly improved

Question: What about the “ventricle size (ventriculomegaly)” value (C57BL/6 mice; hypoxia 10% O2 P3-P12, 10 mg/kg i.p. daily, p<0.05 ANOVA vs hypoxia-vehicle) of the same compound?
Answer: not enlarged

Question: And the “myelin basic protein-labeling (myelination)” value (C57BL/6 mice; room air, 10 mg/kg i.p. daily)?
Answer: More myelin basic protein-labeling

Question: Which IC50 (pre-oligodendrocytes; Rattus norvegicus) does the source give for `CC1(C)Oc2ccc(C#N)cc2[C@@H](N2CCCC2=O)[C@@H]1O` [levcromakalim, (3S,4R)-3-hydroxy-2,2-dimethyl-4-(2-oxopyrrolidin-1-yl)chroman-6-carbonitrile] here?
Answer: 2.5 µM

Question: Which IC50 (pre-oligodendrocytes; Rattus norvegicus) does the source give for `CCC(C)(C)/N=C(/NC#N)Nc1cccnc1` [P 1075, (E)-1-cyano-2-tert-pentyl-3-(pyridin-3-yl)guanidine] here?
Answer: 0.1 µM

Question: `CC(=O)N(O)[C@@H]1c2cc(C#N)ccc2OC(C)(C)[C@H]1O` [Y26763, N-((3S,4R)-6-cyano-3-hydroxy-2,2-dimethylchroman-4-yl)-N-hydroxyacetamide] was tested. Which IC50 (pre-oligodendrocytes; Rattus norvegicus) did it give?
Answer: 0.2 µM

Question: For `CC(O)(C(=O)Nc1ccc(S(=O)(=O)c2ccccc2)cc1)C(F)(F)F` (stereo not drawn) [ZM26600, 3,3,3-trifluoro-2-hydroxy-2-methyl-N-(4-(phenylsulfonyl)phenyl) propanamide], which IC50 (pre-oligodendrocytes) is on record?
Answer: 2.5 µM
